According to patent US7049331B2, “1,2,4-thiadiazole derivatives as melanocortin receptor modulators” (Ortho-McNeil Pharmaceutical, Inc., priority 2001, dated 2006):
pIC50: −log10 of the molar value.

What was measured:
[1] = target: T1, melanocortin MC-4 receptor (Homo sapiens, UniProt P32245); test: Melanocortin MC-4 Receptor Binding Assay (SPA)
T1 construct: purchased Receptor Biology Inc
Outline: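 Membranes bound to WGA SPA beads were incubated 16 h at 25° C with 40 pM ¹²⁵I-NDP-MSH and test compound (1 mM stock in 30% DMSO-HEPES pH 7.4). Nonspecific binding set with 1 μM NDP-MSH or α-MSH; percent inhibition from bound cpm.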

[2] = target: MC5-R (Homo sapiens, UniProt P33032); test: MC5-R binding
Sequence of MC5-R (P33032 whole entry): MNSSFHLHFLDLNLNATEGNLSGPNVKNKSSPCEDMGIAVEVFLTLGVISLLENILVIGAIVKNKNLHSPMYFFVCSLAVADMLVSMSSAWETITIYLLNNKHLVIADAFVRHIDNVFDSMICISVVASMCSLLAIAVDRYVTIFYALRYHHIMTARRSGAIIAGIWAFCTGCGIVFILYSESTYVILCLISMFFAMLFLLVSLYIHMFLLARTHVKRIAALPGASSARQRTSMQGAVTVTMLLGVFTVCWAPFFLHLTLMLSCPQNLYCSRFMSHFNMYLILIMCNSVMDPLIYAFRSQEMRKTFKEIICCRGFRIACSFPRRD

[3] = system: human sebocytes; test: Visual observation of lipid granule formation in sebocytes; type: cell-based
Description: Semiconfluent cultures of 3T3 mouse fibroblasts (Swiss Albino mouse, ATCC CCL-92) were treated with mitomycin C (4 μg/ml) for 3 hours, trypsinized and seeded at a density of 2.5×10^5/9.5 cm^2 tissue culture plate in Dulbeccos Minimal Essential Medium (DMEM) containing 10% Colorado Calf Serum, PNC (100U/ml), STM (100 μg/ml), L glutamine (0.3 mg/ml), sodium pyruvate (1 mM) and nonessential amino acids (100 μM). The cells were incubated at 37° C. for 24 hours prior to their use as a feeder layer for sebocytes.
Human sebocytes were isolated from Dermatome shavings of postoperative pieces of human skin at 0.4–0.8 mm depths (this part of the skin was previously shown to be enriched in sebaceous glands). Shavings so obtained were treated with 1% Dispase in Iscoves medium containing 10% serum for 20 min at 37° C. The tissue was then placed in 0.3% trypsin/1% EDTA in Phosphate Buffered Saline (PBS) for 10 minutes at 37° C. Following this incubation the cells were gently scraped from the tissue in Growth medium (GM) containing DMEM/F12 media mixture (3:1), supplemented with 8% heat inactivated FBS, 2% heat inactivated human serum (HS), 1 mM sodium pyruvate, epidermal growth factor (10 ng/ml), insulin (10 μg/ml), hydrocortisone (0.4 μg/ml) and +/−cholera toxin (100 μg/ml), L-glutamine and antibiotics. Cells so obtained were filtered through nylon mesh ([…]), centrifuged at 750 RPM, re-suspended in GM and counted.
Resultant cells from the above isolation procedure were plated on the 3T3 feeder layers at 2×10^5/9.5 cm^2 in growth medium and maintained at 37° C. and 5% CO2 for 3 days (Phase I). Following the initial growth period they were transferred to a transition medium (TM) that consisted of DMEM/F12 media supplemented with 1 mM sodium pyruvate, insulin ([…]), transferrin ([…]) and selenium (5.5 μg/ml) (ITS), 2% heat inactivated FBS and 2% heat inactivated human serum as well as +/−cholera toxin (ch.t.) (100 μg/ml), L-glutamine and antibiotics (Phase II). Three days later the cells were changed to differentiation medium (DM), DMEM/F12 supplemented with ITS, 3,3′,5-triido-L-thyronine sodium (3 nM), 1%(v/v) trace element mix and the choice of differentiation agent i.e. bovine pituitary extract (10 μg/ml). This medium was changed every 3 days (Phase III).
Hormones, mixture of hormones i.e. bovine pituitary extract or compounds to be tested were added to the culture at the beginning of phase III. Two criteria were used to evaluate the effect of these materials on sebaceous cultures: 1) visual observations and 2) evaluation of sebaceous lipid accumulation and synthesis. The evaluation of lipid accumulation completed using the Nile red method. This method relies on visualization of neutral lipids by Nile red and quantitation by reading of fluorescence at 535 nm excitation, 580 nm emission using a plate reader. The lipid synthesis was evaluated by radioactive labeling using ^14C acetate and quantified by Bio Rad Phosphoimager (Molecular Imager, FX) using 4.1 Software.
Quantitation of accumulation/inhibition of neutral lipids in sebocytes was accomplished by Nile red binding assay. Briefly, following exposure of sebocytes to test compounds, the cells were allowed to interact with 1 μM Nile red in Hanks buffered saline solution containing DMSO and Pluronic F127. After 4 hours of incubation, washing and incubation overnight, the fluorescence was read at 535 excitation and 580 emission using a fluorescence plate reader.
Following the procedure described above, select compounds of the present invention were tested for visual and Nile red evaluation of lipid accumulation, with results as listed in Table 9.
Following the procedure described above, select compounds of the present invention were tested for their inhibitory effect on differentiation of human sebocytes. […]

[4] = system: human sebocytes; test: Nile red evaluation of lipid accumulation in sebocytes; type: cell-based; settings: for inhibition at 0.4 µM: read-out: % Inh 0.4 μM (lipid accumulation, Nile red); for inhibition at 0.8 µM: read-out: % Inh 0.8 μM (lipid accumulation, Nile red)
Description: The cells were incubated at 37° C. for 24 hours prior to their use as a feeder layer for sebocytes. Human sebocytes were isolated from Dermatome shavings of postoperative pieces of human skin at 0.4-0.8 mm depths (this part of the skin was previously shown to be enriched in sebaceous glands). […] This medium was changed every 3 days (Phase III). Hormones, mixture of hormones i.e. bovine pituitary extract or compounds to be tested were added to the culture at the beginning of phase III. […] The evaluation of lipid accumulation completed using the Nile red method. This method relies on visualization of neutral lipids by Nile red and quantitation by reading of fluorescence at 535 nm excitation, 580 nm emission using a plate reader. The lipid synthesis was evaluated by radioactive labeling using ^14C acetate and quantified by Bio Rad Phosphoimager (Molecular Imager, FX) using 4.1 Software. […] Quantitation of accumulation/inhibition of neutral lipids in sebocytes was accomplished by Nile red binding assay. Briefly, following exposure of sebocytes to test compounds, the cells were allowed to interact with 1 μM Nile red in Hanks buffered saline solution containing DMSO and Pluronic F127. After 4 hours of incubation, washing and incubation overnight, the fluorescence was read at 535 excitation and 580 emission using a fluorescence plate reader. […] Following the procedure described above, select compounds of the present invention were tested for visual and Nile red evaluation of lipid accumulation, with results as listed in Table 9.

T1 sequence (P32245 whole entry): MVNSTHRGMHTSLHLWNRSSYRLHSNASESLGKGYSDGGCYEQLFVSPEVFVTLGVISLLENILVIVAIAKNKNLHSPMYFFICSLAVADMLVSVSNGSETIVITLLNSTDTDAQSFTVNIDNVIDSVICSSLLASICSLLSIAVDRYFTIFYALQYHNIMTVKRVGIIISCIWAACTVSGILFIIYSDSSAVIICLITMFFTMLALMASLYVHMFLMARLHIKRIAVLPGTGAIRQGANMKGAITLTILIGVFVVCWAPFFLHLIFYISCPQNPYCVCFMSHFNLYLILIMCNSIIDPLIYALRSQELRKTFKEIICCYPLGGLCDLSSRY

SMILES	IC50 [1] [nM]	MC5-R IC50 [2]	Visual* 0.4 μM (inhibition of lipid granule formation) [3]	Visual* 0.8 μM (inhibition of lipid granule formation) [3]	inhibition at 0.4 µM [4] [%]	inhibition at 0.8 µM [4] [%]	pIC50 [2]	lipid granules in sebocyte cultures (visual, stained cultures) ([3]; seven day treatment)
COc1ccccc1-[n+]1sc(Nc2ccc(C)cc2)nc1-c1ccccc1.[Br-] [Compound 31, 2-(2-methoxyphenyl)-3-phenyl-5-p-tolylamino-[1,2,4]thiadiazol-2-ium]	22	–	–	–	–	–	–	–
COc1ccc(N(C)c2nc(-c3ccccc3)[n+](-c3ccc(C)cc3)s2)cc1 [Compound 50]	30000	No binding	0	0	0	0	–	–
COc1ccccc1-c1nc(Nc2ccccc2)s[n+]1-c1ccccc1OC.[Br-] [Compound 74, 2-(2-methoxyphenyl)-3-(2-methoxyphenyl)-5-phenylamino-[1,2.4]thiadiazol-2-ium]	194	–	+++ (+++ = 75%)	++++ (++++ = 100%)	72	100	6.81	complete disappearance of lipid granules
c1ccc(CNc2nc(-c3ccccc3)[n+](-c3ccccc3)s2)cc1 [Compound 84]	–	No binding	0	0	0	0	–	–
